The nature of data set [1]: Selectivity index, ratio of CC50 for human MT4 cells to EC50 for HIV-2 ROD infected in MT4 cells. The data set is classed as toxicity, cell-based. The settings on record: read-out: Ratio CC50/EC50.
A short description of data set [2]: Selectivity index, ratio of CC50 for human MT4 cells to EC50 for HIV-1 3B infected in MT4 cells. Format: toxicity, cell-based. The settings on record: read-out: Ratio CC50/EC50.
The nature of data set [3]: Cytotoxicity against Homo sapiens (human) MT4 cells by MTT assay. Format: cell-based. (Tetrazolium dyes change colour on reduction, which living cells bring about.)
Data set [4] relates to Human immunodeficiency virus 2. In words: Antiviral activity against Human immunodeficiency virus type 2 (ISOLATE ROD) infected human MT4 cells assessed as inhibition of virus-induced cytopathicity after 4 days by MTT assay. The settings on record: Human immunodeficiency virus 2, ISOLATE ROD, MT4, 96 h. Format: functional, organism-based. A general note: Protection from cytopathic effect is a common read-out in antiviral testing.

Data set [5] deals with Human immunodeficiency virus 1. In words: Antiviral activity against Human immunodeficiency virus 1 IIIB infected human MT4 cells assessed as inhibition of virus-induced cytopathicity after 4 days by MTT assay. Format: functional, organism-based. The settings on record: MT4, 96 h.

Usually CC50 stands for the concentration that lowers cell viability or growth by half. As usually defined, the EC50 is the concentration at which the effect is half-maximal. `O=C(CSc1nnnn1-c1cccc2ccccc12)N/N=C/c1ccc([N+](=O)[O-])cc1`: the selectivity ratio in data set [1] and in data set [2] was 1 each time. For the same compound, the CC50 in data set [3] was not below 261 µM. For the same compound, the EC50 in data set [4] and in data set [5] was more than 261 µM throughout.
Turning to `COc1ccc(/C=N/NC(=O)CSc2nnnn2-c2cccc3ccccc23)c(OC)c1`, the selectivity ratio in data set [1] and in data set [2] was less than 1 throughout. In addition, in data set [3], the CC50 was determined as 28.3 µM. Besides, the EC50 in data set [4] and in data set [5] was more than 28.3 µM each time.
For the compound `COc1ccc(/C=N/NC(=O)CSc2nnnn2-c2cccc3ccccc23)cc1`, the selectivity ratio in data set [1] and in data set [2] was 1 in each case. The same compound came in with a CC50 in data set [3] of more than 299 µM. For the same compound, the EC50 in data set [4] and in data set [5] was more than 299 µM each time.
As to `O=C(CSc1nnnn1-c1cccc2ccccc12)N/N=C/c1ccc(Cl)cc1`, the selectivity ratio in data set [1] and in data set [2] was 1 each time. Also, in data set [3], the CC50 was more than 296 µM. Moreover, the EC50 in data set [4] and in data set [5] was more than 296 µM in each case.
As to `Cc1cn([C@H]2C[C@H](N=[N+]=[N-])[C@@H](CO)O2)c(=O)[nH]c1=O` [ZIDOVUDINE], the selectivity ratio in data set [2] was more than 6190. Moreover, the CC50 in data set [3] was more than 93.5 µM.
Regarding `O=C(CSc1nnnn1-c1cccc2ccccc12)N/N=C/c1ccc(O)cc1`, the selectivity ratio in data set [1] was 1; in data set [2], more than 9. Besides, in data set [3], the CC50 was more than 309 µM. The EC50 in data set [4] was more than 309 µM; in data set [5], 31.6 µM.
For `CN(C)c1ccc(/C=N/NC(=O)CSc2nnnn2-c2cccc3ccccc23)cc1`, the selectivity ratio in data set [1] and in data set [2] was 1 each time. The same compound yielded a CC50 in data set [3] of more than 290 µM. For the same compound, the EC50 in data set [4] and in data set [5] was more than 290 µM in each case.
As for `O=C(CSc1nnnn1-c1cccc2ccccc12)N/N=C/c1ccc(F)cc1`, the selectivity ratio in data set [1] and in data set [2] was 1 throughout. Moreover, the cytotoxic concentration (CC50) in data set [3] was more than 308 µM. The EC50 in data set [4] and in data set [5] was more than 308 µM throughout.
Turning to `O=C(CSc1nnnn1-c1cccc2ccccc12)N/N=C/c1ccccc1Cl`, the selectivity ratio in data set [1] and in data set [2] was less than 1 each time. Also, the CC50 in data set [3] was 69.7 µM. The EC50 in data set [4] and in data set [5] was more than 69.7 µM each time.
In the case of `Cc1cccc(/C=N/NC(=O)CSc2nnnn2-c2cccc3ccccc23)c1`, the selectivity ratio in data set [1] and in data set [2] was less than 1 each time. This compound also registered a CC50 in data set [3] of 269 µM. Besides, the concentration giving a half-maximal response (EC50) in data set [4] and in data set [5] was more than 269 µM in each case.
For the compound `O=C(CSc1nnnn1-c1cccc2ccccc12)N/N=C/c1ccco1`, the selectivity ratio in data set [1] and in data set [2] was 1 each time. In addition, in data set [3], the CC50 was more than 330 µM. In addition, the EC50 in data set [4] and in data set [5] was more than 330 µM each time.
Consider `O=C(CSc1nnnn1-c1cccc2ccccc12)N/N=C/c1cccc(Cl)c1`, for which the selectivity ratio in data set [1] and in data set [2] was less than 1 each time. Half-maximal cytotoxicity in data set [3] (CC50) was put at 240 µM. For the same compound, the EC50 in data set [4] and in data set [5] was more than 240 µM in each case.
As for `O=C(CSc1nnnn1-c1cccc2ccccc12)N/N=C/c1ccccc1O`, the selectivity ratio in data set [1] and in data set [2] was less than 1 in each case. Further, it took 4.85 µM to reach half-maximal cytotoxicity in data set [3] (CC50). Moreover, the EC50 in data set [4] and in data set [5] was more than 4.85 µM in each case.
Regarding `COc1ccc(O)c(/C=N/NC(=O)CSc2nnnn2-c2cccc3ccccc23)c1`, the selectivity ratio in data set [1] and in data set [2] was less than 1 throughout. For the same compound, the CC50 in data set [3] stood at 4.51 µM. The EC50 in data set [4] and in data set [5] was more than 4.51 µM throughout.
Regarding `O=C(CSc1nnnn1-c1cccc2ccccc12)N/N=C/c1cccs1`, the selectivity ratio in data set [1] and in data set [2] was 1 throughout. Further, the CC50 in data set [3] was more than 317 µM. Moreover, the EC50 in data set [4] and in data set [5] was more than 317 µM in each case.
For `O=C1Nc2ccc(Cl)cc2[C@@](C#CC2CC2)(C(F)(F)F)O1` [EFAVIRENZ], the selectivity ratio in data set [2] is more than 1430. This compound also returned a CC50 in data set [3] of more than 6.34 µM.
As to `O=C(CSc1nnnn1-c1cccc2ccccc12)N/N=C/c1ccccc1`, the selectivity ratio is less than 1 in data set [1] and not above 10 in data set [2]. In addition, the CC50 in data set [3] came to 216 µM. Besides, the EC50 was more than 229 µM in data set [4] and not below 21.4 µM in data set [5].
The matching figures for `O=C(CSc1nnnn1-c1cccc2ccccc12)N/N=C/c1cccc(O)c1`: less than 1, 6, 169 µM, more than 169 µM and 29.6 µM.
The like results for `O=C(CSc1nnnn1-c1cccc2ccccc12)N/N=C/c1ccccc1F` were, in that order, 1, 1, not below 118 µM, more than 118 µM and more than 118 µM.
As for `CC(C)Nc1cccnc1N1CCN(C(=O)c2cc3cc(NS(C)(=O)=O)ccc3[nH]2)CC1` [DELAVIRDINE], the selectivity ratio in data set [2] was more than 12. In addition, the CC50 in data set [3] is more than 3.83 µM.
`Cc1ccnc2c1NC(=O)c1cccnc1N2C1CC1` [NEVIRAPINE]: the CC50 in data set [3] was more than 15 µM.
For the compound `COc1cc(/C=N/NC(=O)CSc2nnnn2-c2cccc3ccccc23)ccc1O`, the selectivity ratio in data set [1] and in data set [2] was 1 throughout. In addition, the CC50 in data set [3] was more than 288 µM. Also, the EC50 in data set [4] and in data set [5] was more than 288 µM throughout.
Regarding `COc1cccc(/C=N/NC(=O)CSc2nnnn2-c2cccc3ccccc23)c1OC`, the selectivity ratio in data set [1] and in data set [2] was less than 1 each time. This compound registered a CC50 in data set [3] of 192 µM. Besides, the EC50 in data set [4] and in data set [5] was more than 192 µM each time.
On to `COc1ccc(/C=N/NC(=O)CSc2nnnn2-c2cccc3ccccc23)cc1OC`, for which the figures for the selectivity ratio in data set [1] and in data set [2] were less than 1 and not above 5, respectively. In data set [3], this compound gave a CC50 of 191 µM. The results for the EC50 in data set [4] and in data set [5] were more than 191 µM and not below 36.3 µM, respectively.

(Values after ChEMBL document CHEMBL3045577, “Synthesis and anti-HIV activity evaluation of novel N-arylidene-2-[1-(naphthalen-1-yl)-1H-tetrazol-5-ylthio]acetohydrazides” (Med Chem Res, 2010).)
